Data: US12103939B2, “Solid pharmaceutical gold-based composition” (KING FAHD UNIVERSITY OF PETROLEUM AND MINERALS, priority 2019, dated 2024)

Legend:
[1] = system: A549 lung cancer cell line; assay: Cytotoxicity assay (MTT, 72 h); type: cell-based, human; settings: A549, MTT after 72 h, mean (SD); read-out: Half-maximal inhibitory concentration (IC50)
Protocol: (§1) R-ME-180 and A2780cis cells were maintained in 1 μM cisplatin. Adipose-derived stromal cells were maintained in MSCGM BulletKit medium (Lonza). All cell lines were cultured at 37° C. in a 5% CO2, fully humidified atmosphere
(§2) Cell lines were seeded in 96-well flat-bottomed microplates in 100 μL culture medium at the following densities: DU145, PC3 and MCF-7 cells (2.5×10^3 cells/well); A2780, A2780cis, ME-180, R-ME-180 and A549 cells (4.0×10^3 cells/well); and MG-63 cells (2.0×10^3 cells/well). Cells were allowed to adhere for 24 h. Then the medium was replaced with fresh medium alone or with one of the gold(III) complexes at increasing concentrations from 0 to 100 μM. The reference drugs cisplatin (0-100 μM) and doxorubicin (0-1 μM) were included as positive controls for growth inhibition. After 72 h, cell viability was assayed using the MTT assay.
(§3) See Chou T. C.; Talalay P. Quantitative analysis of dose-effect relationships: the combined effects of multiple drugs or enzyme inhibitors. […] 22, 27-55, incorporated herein by reference in its entirety. IC50 values were reported as mean (SD). For drug-resistance cell lines, fold resistance (FR) was calculated as the ratio of the IC50 of the resistant cell line to the IC50 of the parental cell line.

[2] = system: DU145 prostate cancer cell line; assay: Cytotoxicity assay (MTT, 72 h); type: cell-based, human; settings: DU145, MTT after 72 h, mean (SD); read-out: Half-maximal inhibitory concentration (IC50)
Protocol: as §1, §2, §3

[3] = system: MCF-7 breast cancer cell line; assay: Cytotoxicity assay (MTT, 72 h); type: cell-based, human; settings: MCF-7, MTT after 72 h, mean (SD); read-out: Half-maximal inhibitory concentration (IC50)
Protocol: as §1, §2, §3

[4] = system: MG-63 osteosarcoma cell line; assay: Cytotoxicity assay (MTT, 72 h); type: cell-based, human; settings: MG63, MTT after 72 h, mean (SD); read-out: Half-maximal inhibitory concentration (IC50)
Protocol: as §1, §2, §3

[5] = system: PC3 prostate cancer cell line; assay: Cytotoxicity assay (MTT, 72 h); type: cell-based, human; settings: PC3, MTT after 72 h, mean (SD); read-out: Half-maximal inhibitory concentration (IC50)
Protocol: as §1, §2, §3

[6] = system: cervical cancer cell line ME-180; assay: Cytotoxicity assay (MTT, 72 h); type: cell-based, human; settings: ME-180, MTT after 72 h, mean (SD)
Protocol: as §1, §2, §3

[7] = system: cisplatin- and doxorubicin-resistant A2780cis clone; assay: Cytotoxicity assay (MTT, 72 h); type: cell-based, human; settings: for IC50: A2780cis, MTT after 72 h, mean (SD); for FR (A2780cis/A2780), fold resistance: IC50 A2780cis / IC50 A2780
Protocol: as §1, §2, §3

[8] = system: cisplatin-resistant R-ME-180 clone; assay: Cytotoxicity assay (MTT, 72 h); type: cell-based, human; settings: for FR (R-ME-180/ME-180), fold resistance: IC50 R-ME-180 / IC50 ME-180; for IC50: R-ME-180, MTT after 72 h, mean (SD)
Protocol: as §1, §2, §3

[9] = system: ovarian cancer cell line A2780; assay: Cytotoxicity assay (MTT, 72 h); type: cell-based, human; settings: A2780, MTT after 72 h, mean (SD)
Protocol: as §1, §2, §3

[10] = biological target: T1, lysozyme (Gallus gallus, UniProt P00698); assay: Voltammetry, interaction with lysozyme; settings: 100 μM complex
T1 construct: purchased Sigma-Aldrich
Protocol: The pH of buffers was monitored on a Accumet XL50 pH meter. A GR-2000 electrical balance was used to weigh the various chemicals. Electrochemical measurements for cyclic voltammetry and square wave voltammetry were performed using Autolab instruments (Metrohm; Netherlands). […] The GCE was polished as a mirror-like surface with alumina slurry on a synthetic cloth before every electrochemical analysis. Square wave voltammetry and cyclic voltammetry were scanned from 0 to 1.3 V for the various analyses. Elemental analyses of gold(III) complexes (C1-C8) were performed on PerkinElmer Series 11 (CHNS/O), Analyzer 2400.
The electrochemical investigation of the interactions between the gold(III) complexes (C1-C8) and lysozyme, tryptophan and guanine was performed using the Autolab instrument described above, with a three-electrode system (CH Instruments): platinum wire counter electrode (CHI115), Ag/AgCl reference electrode (in 3 M KCl, CHI111) and glassy carbon working electrode (CHI112) inserted into a 5.0 ml glass cell. Solutions of 1 mM lysozyme, 5 mM tryptophan and 5 mM guanine were prepared in double distilled water, and the experiment was performed in 0.1 M phosphate buffer at pH 6.8.

[11] = system: PC3 cells; assay: Cellular uptake of gold(III) complexes (ICP-MS); type: cell-based, human; settings: 3 μM, 2 h, ICP mass spectrometry
Protocol: After treatment, monolayers were washed with ice-cold PBS four times, and the cells were detached with trypsin-EDTA and washed three times with ice-cold PBS by centrifugation. The cell pellet was solubilized in 700 μL of HNO3—HCl solution (1:3 molar ratio) for 2 h at 100° C., and then diluted with 4 mL water. Samples were analyzed for gold on an Agilent 7500 inductively coupled plasma mass spectrometer (ICP-MS). Results were expressed as ng gold/10^6 cells. The experiment was performed a total of two times and the results were expressed as mean and SD.

[12] = CV, 0 μM lysozyme, 0.1 M phosphate buffer pH 6.8

T1 sequence (P00698 19-147): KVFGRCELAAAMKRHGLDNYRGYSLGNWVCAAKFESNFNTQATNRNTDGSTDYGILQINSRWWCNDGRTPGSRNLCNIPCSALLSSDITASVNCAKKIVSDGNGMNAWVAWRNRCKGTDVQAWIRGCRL

Oc1ccc[n+]2c1-c1c(O)ccc[n+]1[Au-]2([Cl])[Cl].[Cl-] [C1, [Au(BPYH)(Cl)2]Cl]
IC50 [1]: > 80 µM | IC50 [2]: 39 µM | IC50 [3]: 59 µM | IC50 [4]: 43 µM | IC50 [5]: 28.3 µM | IC50 [6]: 70 µM | IC50 [7]: 24 µM | FR (A2780cis/A2780), fold resistance [7]: 1.0 | FR (R-ME-180/ME-180), fold resistance [8]: 1.0 | IC50 [8]: 72 µM | IC50 [9]: 23 µM | Voltammetry peak potential [10, 12]: 0.739 V | Voltammetry peak potential ([10]; CV, 1 μM lysozyme, pH 6.8): 0.8142 V | Voltammetry peak potential ([10]; CV, 4 μM lysozyme, pH 6.8): 0.8319 V | Voltammetry peak potential ([10]; CV, 10 μM lysozyme, pH 6.8): 0.8762 V | Voltammetry peak potential ([10]; SWV, 0 μM lysozyme, pH 6.8): 0.7934 V | Voltammetry peak potential ([10]; SWV, 1 μM lysozyme, pH 6.8): 0.8034 V | Voltammetry peak potential ([10]; SWV, 4 μM lysozyme, pH 6.8): 0.8387 V | Voltammetry peak potential ([10]; SWV, 10 μM lysozyme, pH 6.8): 0.8639 V

CN(C)C1=[S+][Au-]2([S]1)[n+]1cccc(O)c1-c1c(O)ccc[n+]12.[Cl-].[Cl-] [C2, [Au(BPYH)(DMDTC)]Cl2]
IC50 [1]: 6.1 µM | IC50 [2]: 2.8 µM | IC50 [3]: 2.3 µM | IC50 [4]: 3.8 µM | IC50 [5]: 1.5 µM | IC50 [6]: 14 µM | IC50 [7]: 0.8 µM | FR (A2780cis/A2780), fold resistance [7]: 0.9 | FR (R-ME-180/ME-180), fold resistance [8]: 1.5 | IC50 [8]: 21 µM | IC50 [9]: 0.9 µM | Voltammetry peak potential [10, 12]: 0.7921 V | Voltammetry peak potential ([10]; CV, 1 μM lysozyme, pH 6.8): 0.8009 V | Voltammetry peak potential ([10]; CV, 4 μM lysozyme, pH 6.8): 0.8186 V | Voltammetry peak potential ([10]; CV, 10 μM lysozyme, pH 6.8): 0.8319 V | Voltammetry peak potential ([10]; SWV, 0 μM lysozyme, pH 6.8): 0.7883 V | Voltammetry peak potential ([10]; SWV, 1 μM lysozyme, pH 6.8): 0.7934 V | Voltammetry peak potential ([10]; SWV, 4 μM lysozyme, pH 6.8): 0.8085 V | Voltammetry peak potential ([10]; SWV, 10 μM lysozyme, pH 6.8): 0.8135 V

CCN(CC)C1=[S+][Au-]2([S]1)[n+]1cccc(O)c1-c1c(O)ccc[n+]12.[Cl-].[Cl-] [C3, [Au(BPYH)(DEDTC)]Cl2]
IC50 [1]: 3.8 µM | IC50 [2]: 3.5 µM | IC50 [3]: 1.7 µM | IC50 [4]: 1.2 µM | IC50 [5]: 1.3 µM | IC50 [7]: 0.4 µM | FR (A2780cis/A2780), fold resistance [7]: 1.1 | FR (R-ME-180/ME-180), fold resistance [8]: 1.3 | IC50 [8]: 3.8 µM | Voltammetry peak potential [10, 12]: 0.7965 V | Voltammetry peak potential ([10]; CV, 1 μM lysozyme, pH 6.8): 0.8098 V | Voltammetry peak potential ([10]; CV, 4 μM lysozyme, pH 6.8): 0.8231 V | Voltammetry peak potential ([10]; CV, 10 μM lysozyme, pH 6.8): 0.8363 V | Voltammetry peak potential ([10]; SWV, 0 μM lysozyme, pH 6.8): 0.7934 V | Voltammetry peak potential ([10]; SWV, 1 μM lysozyme, pH 6.8): 0.8034 V | Voltammetry peak potential ([10]; SWV, 4 μM lysozyme, pH 6.8): 0.8135 V | Voltammetry peak potential ([10]; SWV, 10 μM lysozyme, pH 6.8): 0.8236 V

Oc1ccc[n+]2c1-c1c(O)ccc[n+]1[Au-]21[S]C(N(Cc2ccccc2)Cc2ccccc2)=[S+]1.[Cl-].[Cl-] [C4, [Au(BPYH)(DBDTC)]Cl2]
IC50 [1]: 25 µM | IC50 [2]: 6.4 µM | IC50 [3]: 13 µM | IC50 [4]: 12.3 µM | IC50 [5]: 8.5 µM | IC50 [6]: 30 µM | IC50 [7]: 8.2 µM | FR (A2780cis/A2780), fold resistance [7]: 1.1 | FR (R-ME-180/ME-180), fold resistance [8]: 1.0 | IC50 [8]: 30 µM | IC50 [9]: 7.3 µM | Voltammetry peak potential [10, 12]: 0.7965 V | Voltammetry peak potential ([10]; CV, 1 μM lysozyme, pH 6.8): 0.8098 V | Voltammetry peak potential ([10]; CV, 4 μM lysozyme, pH 6.8): 0.8186 V | Voltammetry peak potential ([10]; CV, 10 μM lysozyme, pH 6.8): 0.8275 V | Voltammetry peak potential ([10]; SWV, 0 μM lysozyme, pH 6.8): 0.7883 V | Voltammetry peak potential ([10]; SWV, 1 μM lysozyme, pH 6.8): 0.7934 V | Voltammetry peak potential ([10]; SWV, 4 μM lysozyme, pH 6.8): 0.8085 V | Voltammetry peak potential ([10]; SWV, 10 μM lysozyme, pH 6.8): 0.8135 V

[Cl-].[Cl-].[Cl][Au-]1([Cl])[n+]2ccc[n+]3c2-c2[n+]1ccc[n+]2[Au-]3([Cl])[Cl] [C5, [Au2(BPM)(Cl)4]Cl2]
IC50 [1]: > 80 µM | IC50 [2]: > 80 µM | IC50 [3]: 65 µM | IC50 [4]: 26 µM | IC50 [5]: > 80 µM | IC50 [6]: > 80 µM | IC50 [7]: 16.2 µM | FR (A2780cis/A2780), fold resistance [7]: 1.1 | IC50 [8]: > 80 µM | IC50 [9]: 15.4 µM

CC[N+](CC)=C1[S][Au-]2([S]1)[n+]1ccc[n+]3c1-c1[n+]2ccc[n+]1[Au-]31[S]C(=[N+](CC)CC)[S]1.[Cl-].[Cl-].[Cl-].[Cl-] [C7, [Au2(BPM)(DEDTC)2]Cl4]
IC50 [1]: 1.4 µM | IC50 [2]: 0.8 µM | IC50 [3]: 0.6 µM | IC50 [4]: 0.7 µM | IC50 [5]: 0.8 µM | IC50 [7]: 0.3 µM | FR (A2780cis/A2780), fold resistance [7]: 0.9 | FR (R-ME-180/ME-180), fold resistance [8]: 0.9 | IC50 [8]: 4.1 µM | amount of internalized gold (cellular uptake) [11]: greater uptake

[Cl-].[Cl-].[Cl-].[Cl-].c1ccc(C[N+](Cc2ccccc2)=C2[S][Au-]3([S]2)[n+]2ccc[n+]4c2-c2[n+]3ccc[n+]2[Au-]42[S]C(=[N+](Cc3ccccc3)Cc3ccccc3)[S]2)cc1 [C8, [Au2(BPM)(DBDTC)2]Cl4]
IC50 [1]: 23 µM | IC50 [2]: 22.8 µM | IC50 [3]: 9.5 µM | IC50 [4]: 5.8 µM | IC50 [5]: 19.5 µM | IC50 [6]: 15 µM | IC50 [7]: 5.2 µM | FR (A2780cis/A2780), fold resistance [7]: 1.4 | FR (R-ME-180/ME-180), fold resistance [8]: 1.0 | IC50 [8]: 16 µM | IC50 [9]: 3.8 µM

N.N.[Cl][Pt][Cl] [Cisplatin, reference compound]
IC50 [2]: 4.5 µM | IC50 [5]: 3.3 µM | IC50 [6]: 15 µM | IC50 [7]: 10.4 µM | FR (A2780cis/A2780), fold resistance [7]: 6.9 | FR (R-ME-180/ME-180), fold resistance [8]: 4.5 | IC50 [8]: 68 µM | IC50 [9]: 1.5 µM

COc1cccc2c1C(=O)c1c(O)c3c(c(O)c1C2=O)C[C@@](O)(C(=O)CO)C[C@@H]3O[C@H]1C[C@H](N)[C@H](O)[C@H](C)O1 [Doxorubicin, reference compound]
IC50 ([7]; Homo sapiens): 0.12 µM | FR (A2780cis/A2780), fold resistance [7]: 9.0 | IC50 ([9]; Homo sapiens): 0.02 µM
